# US10076519B2 (CYTOKINETICS, INC., priority 2010, dated 2018)
# Tested on: rabbit skeletal myofibrils (fast skeletal myofibrils)
# Assay: Activation of fast skeletal myofibrils (PUMA assay, PK/LDH-coupled ATPase at pCa25)
# Type: biochemical
# Details: AC1.4 determined according to the procedure of Example 39; reported as class symbols
# Method in brief: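 Detergent-washed rabbit psoas myofibrils (~90% fast fibres, calcium-regulated) assayed at calcium giving 25% of maximal ATPase rate (pCa25). ADP turnover coupled via pyruvate kinase/lactate dehydrogenase to NADH oxidation, read at 340 nm. Buffer 12 mM PIPES, 2 mM MgCl2, 1 mM DTT, pH 6.8; AC1.4 values derived.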
row,Mean AC1.4,SMILES
1,B (B=1-10 uM),NC(=O)c1cccc(-c2ccc(NCC3CCc4ccccc43)nn2)c1 (stereo not drawn) [3-{6-[(indanylmethyl)amino]pyridazin-3-yl}benzamide]
2,B (B=1-10 uM),"CC(C)(CNc1ccc(C2=CCN(S(C)(=O)=O)CC2)nn1)c1ccc(F)cc1 [4-(6-{[2-(4-fluorophenyl)-2-methylpropyl]amino}pyridazin-3-yl)-1-(methylsulfonyl)-1,2,5,6-tetrahydropyridine]"
3,B (B=1-10 uM),CC(C)(CNc1ccc(-c2ccc(C(N)=O)cc2)nn1)c1ccc(F)cc1 [4-(6-{[2-(4-fluorophenyl)-2-methylpropyl]amino}pyridazin-3-yl)benzamide]
4,B (B=1-10 uM),CC(C)(CNc1ccc(-c2ccc(C#N)cc2)nn1)c1ccc(F)cc1 [4-(6-{[2-(4-fluorophenyl)-2-methylpropyl]amino}pyridazin-3-yl)benzenecarbonitrile]
5,D (D=>20 uM),CC(C)(CNc1ccc(-c2ccc(C(=O)c3ccccc3)cc2)nn1)c1ccc(F)cc1 [4-(6-{[2-(4-fluorophenyl)-2-methylpropyl]amino}pyridazin-3-yl)phenyl phenyl ketone]
6,D (D=>20 uM),CC(C)(CNc1ccc(C(=O)N2CCNC(=O)C2)nn1)c1ccc(F)cc1 [4-[(6-{[2-(4-fluorophenyl)-2-methylpropyl]amino}pyridazin-3-yl)carbonyl]piperazin-2-one]
7,D (D=>20 uM),CC(C)(CNc1ccc(C(=O)N2CCNC(C(N)=O)C2)nn1)c1ccc(F)cc1 (stereo not drawn) [4-[(6-{[2-(4-fluorophenyl)-2-methylpropyl]amino}pyridazin-3-yl)carbonyl]piperazine-2-carboxamide]
8,B (B=1-10 uM),CC(C)(CNc1ccc(-c2cncc(C#N)c2)nn1)c1ccccc1Cl [5-(6-{[2-(2-chlorophenyl)-2-methylpropyl]amino}pyridazin-3-yl)pyridine-3-carbonitrile]
9,B (B=1-10 uM),CC(C)(CNc1ccc(-c2cncc(C(N)=O)c2)nn1)c1ccccc1Cl [5-(6-{[2-(2-chlorophenyl)-2-methylpropyl]amino}pyridazin-3-yl)pyridine-3-carboxamide]
10,A (A=<1 uM),CC(C)(CNc1ccc(-c2ccc3[nH]c(O)nc3c2)nn1)c1ncccc1F [5-(6-{[2-(3-fluoro(2-pyridyl))-2-methylpropyl]amino}pyridazin-3-yl)benzimidazol-2-ol]
11,C (C=10-20 uM),"CC(C)(CNc1ccc(-c2n[nH]c(=O)o2)nn1)c1ccc(F)cc1 [5-(6-{[2-(4-fluorophenyl)-2-methylpropyl]amino}pyridazin-3-yl)-1,3,4-oxadiazolin-2-one]"
12,D (D=>20 uM),CC(C)(CNc1ccc(-c2ccc3[nH]nc(C#N)c3c2)nn1)c1ccc(F)cc1 [5-(6-{[2-(4-fluorophenyl)-2-methylpropyl]amino}pyridazin-3-yl)-1H-indazole-3-carbonitrile]
13,A (A=<1 uM),CC(C)(CNc1ccc(-c2ccc3[nH]nc(C(N)=O)c3c2)nn1)c1ccc(F)cc1 [5-(6-{[2-(4-fluorophenyl)-2-methylpropyl]amino}pyridazin-3-yl)-1H-indazole-3-carboxamide]
14,B (B=1-10 uM),CC(C)(CNc1ccc(-c2ccc3[nH]nc(C(=N)N)c3c2)nn1)c1ccc(F)cc1 [5-(6-{[2-(4-fluorophenyl)-2-methylpropyl]amino}pyridazin-3-yl)-1H-indazole-3-carboxamidine]
15,B (B=1-10 uM),CC(C)(CNc1ccc(-c2cc(C(N)=O)c3[nH]ncc3c2)nn1)c1ccc(F)cc1 [5-(6-{[2-(4-fluorophenyl)-2-methylpropyl]amino}pyridazin-3-yl)-1H-indazole-7-carboxamide]
16,C (C=10-20 uM),CC(C)(CNc1ccc(-c2ccc(C#N)nc2)nn1)c1ccc(F)cc1 [5-(6-{[2-(4-fluorophenyl)-2-methylpropyl]amino}pyridazin-3-yl)pyridine-2-carbonitrile]
17,B (B=1-10 uM),CC(C)(CNc1ccc(-c2ccc(C(N)=O)nc2)nn1)c1ccc(F)cc1 [5-(6-{[2-(4-fluorophenyl)-2-methylpropyl]amino}pyridazin-3-yl)pyridine-2-carboxamide]
18,B (B=1-10 uM),CC(C)(CNc1ccc(-c2cncc(C#N)c2)nn1)c1ccc(F)cc1 [5-(6-{[2-(4-fluorophenyl)-2-methylpropyl]amino}pyridazin-3-yl)pyridine-3-carbonitrile]
19,B (B=1-10 uM),CC(C)(CNc1ccc(-c2cncc(C(N)=O)c2)nn1)c1ccc(F)cc1 [5-(6-{[2-(4-fluorophenyl)-2-methylpropyl]amino}pyridazin-3-yl)pyridine-3-carboxamide]

# Same assay, conditions: median AC1.4 class, procedure of Example 39
row,Mean AC1.4,SMILES
1,C (C=10-20 uM),CC(C)(C)Nc1ccc(-c2cccc(C(N)=O)c2)nn1 [3-{6-[(tert-butyl)amino]pyridazin-3-yl}benzamide]
2,B (B=1-10 uM),"O=C(c1cnc(-c2ccc(NCC3(c4ncccc4F)CCC3)nn2)s1)N1CCS(=O)(=O)CC1 [4-({2-[6-({[(3-fluoro-2-pyridyl)cyclobutyl]methyl}ami-no)pyridazin-3-yl]-1,3-thiazol-5-yl}carbonyl)-1,4-thiazaperhydroine-1,1-dione]"
3,C (C=10-20 uM),"O=C1CN(C(=O)c2cnc(-c3ccc(NCC4(c5ncccc5F)CCC4)nn3)s2)CCN1 [4-({2-[6-({[(3-fluoro-2-pyridyl)cyclobutyl]methyl}ami-no)pyridazin-3-yl]-1,3-thiazol-5-yl}carbonyl)piperazin-2-one]"
4,B (B=1-10 uM),"NC(=O)C1CN(C(=O)c2cnc(-c3ccc(NCC4(c5ncccc5F)CCC4)nn3)s2)CCN1 (stereo not drawn) [4-({2-[6-({[(3-fluoro-2-pyridyl)cyclobutyl]methyl}ami-no)pyridazin-3-yl]-1,3-thiazol-5-yl}carbonyl)piperazine-2-carboxamide]"
5,B (B=1-10 uM),"NC(=O)c1nc(-c2ccc(NCC3(c4ncccc4F)CCC3)nn2)cs1 [4-[6-({[(3-fluoro-2-pyridyl)cyclobutyl]methyl}ami-no)pyridazin-3-yl]-1,3-thiazole-2-carboxamide]"
6,D (D=>20 uM),NC(=O)c1nccc(-c2ccc(NCC3(c4ncccc4F)CCC3)nn2)n1 [4-[6-({[(3-fluoro-2-pyridyl)cyclobutyl]methyl}ami-no)pyridazin-3-yl]pyrimidine-2-carboxamide]
7,B (B=1-10 uM),CC(C)(Nc1ccc(-c2cc(C(N)=O)ccc2F)nn1)c1ncccc1F [4-fluoro-3-(6-{[1-(3-fluoro(2-pyridyl))-isopropyl]amino}pyridazin-3-yl)benzamide]
8,A (A=<1 uM),CC(C)(Nc1ccc(-c2cc(C(N)=O)ccc2F)nn1)c1ccc(F)cc1 [4-fluoro-3-(6-{[1-(4-fluorophenyl)-isopropyl]amino}pyridazin-3-yl)benzamide]
9,B (B=1-10 uM),N#Cc1ccc(F)c(-c2ccc(NC[C@]3(c4ncccc4F)C[C@H](F)C3)nn2)c1 [4-fluoro-3-[6-({[3-fluoro-1-(3-fluoro(2-pyridyl))cyclobutyl]methyl}ami-no)pyridazin-3-yl]benzenecarbonitrile]
10,A (A=<1 uM),O=C(O)c1ccc(F)c(-c2ccc(NC[C@]3(c4ncccc4F)C[C@H](F)C3)nn2)c1 [4-fluoro-3-[6-({[3-fluoro-1-(3-fluoro(2-pyridyl))cyclobutyl]methyl}ami-no)pyridazin-3-yl]benzoic acid]
11,C (C=10-20 uM),CC(C)(Nc1ccc(-c2ccc(C(N)=O)cc2)nn1)c1ccccc1 [4-{6-[(1-methyl-1-phenylethyl)amino]pyridazin-3-yl}benzamide]
12,B (B=1-10 uM),NC(=O)c1cc(-c2ccc(NC3(c4ncccc4F)CCC3)nn2)ccc1O [5-(6-{[(3-fluoro(2-pyridyl))cyclobutyl]amino}pyr-idazin-3-yl)-2-hydroxybenzamide]

# Same assay, conditions: median AC1.4 reported as class; procedure of Example 39
row,Mean AC1.4,SMILES
1,D (D=>20 uM),"O=S1(=O)CCN(Cc2cnc(-c3ccc(NCC4(c5ncccc5F)CCC4)nn3)s2)CC1 [4-({2-[6-({[(3-fluoro-2-pyridyl)cyclobutyl]methyl}ami-no)pyridazin-3-yl]-1,3-thiazol-5-yl}methyl)-1,4-thiazaperhydroine-1,1-dione]"
2,B (B=1-10 uM),O=C1NCc2c1cccc2-c1ccc(NC[C@]2(c3ncccc3F)C[C@H](F)C2)nn1 [4-[6-({[3-fluoro-1-(3-fluoro(2-pyridyl))cyclobutyl]methyl}ami-no)pyridazin-3-yl]isoindolin-1-one]
3,A (A=<1 uM),NC(=O)c1ccc(F)c(-c2ccc(NC[C@]3(c4ncccc4F)C[C@H](F)C3)nn2)c1O [4-fluoro-3-[6-({[3-fluoro-1-(3-fluoro(2-pyridyl))cyclobutyl]methyl}ami-no)pyridazin-3-yl]-2-hydroxybenzamide]
4,C (C=10-20 uM),Cc1cc(NCC2(c3ncccc3F)CCC2)nnc1-c1cc(C(N)=O)ccc1F [4-fluoro-3-[6-({[(3-fluoro(2-pyridyl))cyclobutyl]methyl}ami-no)-4-methylpyridazin-3-yl]benzamide]
5,A (A=<1 uM),NC(=O)c1ccc(F)c(-c2ccc(NCC3(c4ncccc4F)CCC3)nn2)c1O [4-fluoro-3-[6-({[(3-fluoro(2-pyridyl))cyclobutyl]methyl}ami-no)pyridazin-3-yl]-2-hydroxybenzamide]
6,A (A=<1 uM),NC(=O)c1cc(-c2ccc(NC[C@]3(c4ncccc4F)C[C@H](F)C3)nn2)c(F)cc1O [4-fluoro-5-[6-({[3-fluoro-1-(3-fluoro(2-pyridyl))cyclobutyl]methyl}ami-no)pyridazin-3-yl]-2-hydroxybenzamide]
7,A (A=<1 uM),NC(=O)c1cc(-c2ccc(NCC3(c4ncccc4F)CCC3)nn2)c(F)cc1O [4-fluoro-5-[6-({[(3-fluoro(2-pyridyl))cyclobutyl]methyl}ami-no)pyridazin-3-yl]-2-hydroxybenzamide]
8,D (D=>20 uM),Cn1cc(NC(=O)c2ccc(NCC3(c4ncccc4F)CCC3)nn2)nc1C(N)=O [4-{[6-({[(3-fluoro(2-pyridyl))cyclobutyl]methyl}ami-no)pyridazin-3-yl]carbonylamino}-1-methylimidazole-2-carboxamide]
